From US11780840B2 (Incyte Corporation, priority 2020, dated 2023)

Key:
[1] = biological target: T1, catalytic domain (JH1, amino acids 826-1132) of human JAK2 (Homo sapiens, UniProt O60674); assay: JAK2 LanthaScreen JH1 Binding Assay; details: JAK2 JH1 (1.5 nM), 50 nM fluorescent JAK2-JH1 tracer, 2 hours at 25° C.; read-out: JH1 BIND
T1 construct: catalytic domain (JH1, amino acids 826-1132) of human JAK2; FLAG (N); purchased Carna Biosciences 08-445-20N; host or cells: baculovirus expression system
Method: Example A. JAK2 LanthaScreen JH1 Binding Assay
JAK2 JH1 binding assay utilizes catalytic domain (JH1, amino acids 826-1132) of human JAK2 expressed as N-terminal FLAG-tagged, biotinylated protein in a baculovirus expression system (Carna Biosciences, Product #08-445-20N). The assay was conducted in black 384-well polystyrene plates in a final reaction volume of 20 μL. JAK2 JH1 (1.5 nM) was incubated with compounds (100 nL serially diluted in DMSO) in the presence of 50 nM fluorescent JAK2-JH1 tracer and 0.5 nM Streptavidin-Tb cryptate (Cisbio Part #610SATLB) in assay buffer (50 mM Tris, pH=7.5, 10 mM MgCl2, 0.01% Brij-35, 0.1% BSA, 1 mM EGTA, 5% Glycerol and 5 mM DTT). Non-specific binding was accessed in the presence of 2 mM ATP. After incubation for 2 hours at 25° C., LanthaScreen signals were read on a PHERAstar FS plate reader (BMG LABTECH). Data was analyzed with IDBS XLfit and GraphPad Prism 5.0 software using a four parameter dose response curve to determine IC50 for each compound.

[2] = biological target: T2, pseudo-kinase domain (JH2, amino-acids 536-812 with 3 surface mutations W659A, W777A, F794H) of human Wild Type JAK2 (Homo sapiens, UniProt O60674, F794H/W659A/W777A); assay: JAK2 LanthaScreen JH2-WT Binding Assay; details: JAK2 JH2-WT (0.145 nM), 50 nM Fluorescent JAK2-JH2 Tracer, 1 hour at 25° C.; read-out: JH2 BIND WT
T2 construct: pseudo-kinase domain (JH2, amino-acids 536-812 with 3 surface mutations W659A, W777A, F794H); His (C); Avi (biotinylated) (C); purchased BPS Bioscience 79463; host or cells: baculovirus expression system
Method: Example B. JAK2 LanthaScreen JH2-WT Binding Assay
(§1) JAK2 JH2-WT binding assay utilizes pseudo-kinase domain (JH2, amino-acids 536-812 with 3 surface mutations W659A, W777A, F794H) of human Wild Type JAK2 expressed as C-terminal His-Avi-tagged, biotinylated protein in a baculovirus expression system (BPS Bioscience, Catalog #79463). The assay was conducted in black 384-well polystyrene plates in a final reaction volume of 20 μL. JAK2 JH2-WT (0.145 nM) was incubated with compounds (100 nL serially diluted in DMSO) in the presence of 50 nM Fluorescent JAK2-JH2 Tracer (MedChem Express Catalog #HY-102055) and 0.25 nM Streptavidin-Tb cryptate (Cisbio Part #610SATLB) in assay buffer (50 mM Tris, pH=7.5, 10 mM MgCl2, 0.01% Brij-35, 0.1% BSA, 1 mM EGTA, 5% Glycerol and 5 mM DTT). Non-specific binding was accessed in the presence of 2 mM ATP. After incubation for 1 hour at 25° C., LanthaScreen signals were read on a PHERAstar FS plate reader (BMG LABTECH). Data was analyzed with IDBS XLfit and GraphPad Prism 5.0 software using a four parameter dose response curve to determine IC50 for each compound.

[3] = biological target: T3, pseudo-kinase domain (JH2, amino-acids 536-812 with 3 surface mutations W659A, W777A, F794H) of human V617F mutant JAK2 (Homo sapiens, UniProt O60674, F794H/V617F/W659A/W777A); assay: JAK2 LanthaScreen JH2-V617F Binding Assay; details: JAK2 JH2-V617F (0.26 nM), 50 nM Fluorescent JAK2-JH2 Tracer, 1 hour at 25° C.; read-out: JH2 BIND V617F
T3 construct: pseudo-kinase domain (JH2, amino-acids 536-812 with 3 surface mutations W659A, W777A, F794H); His (C); Avi (biotinylated) (C); purchased BPS Bioscience 79498; host or cells: baculovirus expression system
Method: Example C. JAK2 LanthaScreen JH2-V617F Binding Assay
as §1, with “JH2-V617F” for “JH2-WT”, “V617F mutant” for “Wild Type”, “#79498).” for “#79463).”, “JH2-V617F (0.26” for “JH2-WT (0.145”

T3 sequence (O60674 536-812 V617F/W659A/W777A/F794H): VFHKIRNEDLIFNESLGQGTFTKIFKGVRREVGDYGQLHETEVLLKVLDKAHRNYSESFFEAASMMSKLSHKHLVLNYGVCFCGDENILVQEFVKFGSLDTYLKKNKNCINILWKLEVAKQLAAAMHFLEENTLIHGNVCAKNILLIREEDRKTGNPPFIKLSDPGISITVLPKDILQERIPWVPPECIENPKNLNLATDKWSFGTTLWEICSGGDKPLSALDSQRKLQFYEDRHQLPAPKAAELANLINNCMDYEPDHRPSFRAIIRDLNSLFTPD
T2 sequence (O60674 536-812 W659A/W777A/F794H): as the sequence (O60674 536-812 V617F/W659A/W777A/F794H) above, with F82V counted along it
T1 sequence (O60674 826-1132): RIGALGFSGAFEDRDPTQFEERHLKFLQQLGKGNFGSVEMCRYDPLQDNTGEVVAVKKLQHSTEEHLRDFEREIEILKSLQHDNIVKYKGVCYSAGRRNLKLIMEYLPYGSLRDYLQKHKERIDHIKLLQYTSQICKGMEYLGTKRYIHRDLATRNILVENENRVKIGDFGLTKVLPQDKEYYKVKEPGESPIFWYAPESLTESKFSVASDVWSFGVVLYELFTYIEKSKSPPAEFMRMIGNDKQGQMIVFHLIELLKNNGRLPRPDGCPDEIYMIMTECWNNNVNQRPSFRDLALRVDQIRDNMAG

Structure (SMILES): Cn1c(=O)n(C2CCCC2)c2c3c(-c4ccc(C5(C#N)CC5)cc4)c(-c4cnn(CS(C)(=O)=O)c4)[nH]c3ncc21 [Example 31, 1-(4-(1-Cyclopentyl-3-methyl-7-(1-((methylsulfonyl)methyl)-1H-pyrazol-4-yl)-2-oxo-1,2,3,6-tetrahydroimidazo [4,5-d]pyrrolo[2,3-b]pyridin-8-yl)phenyl)cyclo-propane-1-carbonitrile]
- IC50 [1]: 100 to 500 nM
- IC50 [2]: ≤ 10 nM
- IC50 [3]: ≤ 10 nM

Structure (SMILES): COC1CC=C(c2c(-c3ccc(CN4CCC(S(C)(=O)=O)CC4)cc3)[nH]c3ncc4c(c23)n(C2CCCC2)c(=O)n4C)CC1 (stereo not drawn) [Example 32, 1-Cyclopentyl-8-(4-methoxycyclohex-1-en-1-yl)-3-methyl-7-(4-((4-(methylsulfonyl)piperidin-1-yl)methyl)phenyl)-3,6-dihydroimidazo[4,5-d]pyrrolo[2,3-b] pyridin-2(1H)-one]
- IC50 [1]: 10 to 100 nM
- IC50 [2]: ≤ 10 nM
- IC50 [3]: ≤ 10 nM

Structure (SMILES): Cn1c(=O)n(C2CCCC2)c2c3c(C4=CCOCC4)c(-c4ccc(CN5CCC(S(C)(=O)=O)CC5)cc4)[nH]c3ncc21 [Example 33, 1-Cyclopentyl-8-(3,6-dihydro-2H-pyran-4-yl)-3-methyl-7-(4-((4-(methylsulfonyl)piperidin-1-yl)methyl)phenyl)-3,6-dihydroimidazo[4,5-d]pyrrolo[2,3-b] pyridin-2(1H)-one]
- IC50 [1]: 10 to 100 nM
- IC50 [2]: ≤ 10 nM
- IC50 [3]: ≤ 10 nM

Structure (SMILES): Cn1c(=O)n(C)c2c3c(C4CC4)c(-c4ccc(CN5CCC(S(C)(=O)=O)CC5)cc4)[nH]c3ncc21 [Example 34]
- IC50 [1]: 500 to 1000 nM
- IC50 [2]: 500 to 1000 nM
- IC50 [3]: > 1000 nM

Structure (SMILES): COc1ccc(-c2c(-c3ccc(CN4CCC(S(C)(=O)=O)CC4)cc3)[nH]c3ncc4c(c23)n(C)c(=O)n4C)cn1 [Example 35, 8-(6-Methoxypyridin-3-yl)-1,3-dimethyl-7-(4-((4-(methylsulfonyl)piperidin-1-yl)methyl)phenyl)-3,6-dihydroimidazo[4,5-d]pyrrolo[2,3-b]pyridin-2(1H)-one]
- IC50 [1]: > 1000 nM
- IC50 [2]: 100 to 500 nM
- IC50 [3]: 100 to 500 nM

Structure (SMILES): CC(C)n1c(=O)n(C)c2cnc3[nH]c(-c4cnn(Cc5ccncc5)c4)c(-c4ccc(C#N)cc4)c3c21 [Example 36, 4-(1-Isopropyl-3-methyl-2-oxo-7-(1-(pyridin-4-ylmethyl)-1H-pyrazol-4-yl)-1,2,3,6-tetrahydroimidazo [4,5-d]pyrrolo[2,3-b]pyridin-8-yl)benzonitrile]
- IC50 [1]: 100 to 500 nM
- IC50 [2]: ≤ 10 nM
- IC50 [3]: ≤ 10 nM

Structure (SMILES): CC(=O)N1CCN(c2ccc(-c3[nH]c4ncc5c(c4c3-c3ccc(C#N)cc3)n(C(C)C)c(=O)n5C)cc2)CC1 [Example 37, 4-(7-(4-(4-Acetylpiperazin-1-yl)phenyl)-1-isopropyl-3-methyl-2-oxo-1,2,3,6-tetrahydroimidazo [4,5-d]pyrrolo[2,3-b]pyridin-8-yl) benzonitrile]
- IC50 [1]: > 1000 nM
- IC50 [2]: ≤ 10 nM
- IC50 [3]: ≤ 10 nM

Structure (SMILES): CC(C)n1c(=O)n(C)c2cnc3[nH]c(C4=CCOCC4)c(-c4ccc(C#N)cc4)c3c21 [Example 38, 4-(7-(3,6-Dihydro-2H-pyran-4-yl)-1-isopropyl-3-methyl-2-oxo-1,2,3,6-tetrahydroimidazo [4,5-d]pyrrolo[2,3-b]pyridin-8-yl)benzonitrile]
- IC50 [1]: > 1000 nM
- IC50 [2]: 10 to 100 nM
- IC50 [3]: 10 to 100 nM

Structure (SMILES): CC(C)n1c(=O)n(C)c2cnc3[nH]c(C4CC4)c(-c4ccc(C#N)cc4)c3c21 [Example 39]
- IC50 [1]: > 1000 nM
- IC50 [2]: 10 to 100 nM
- IC50 [3]: 10 to 100 nM

Structure (SMILES): Cn1c(=O)n(C)c2c3c(-c4ccccc4)c(-c4cccnc4)[nH]c3ncc21 [Example 40, 1,3-Dimethyl-8-phenyl-7-(pyridin-3-yl)-3,6-dihydroimidazo[4,5-d]pyrrolo[2,3-b]pyridin-2(1H)-one]
- IC50 [1]: > 1000 nM
- IC50 [2]: 500 to 1000 nM
- IC50 [3]: > 1000 nM

Structure (SMILES): Cn1c(=O)n(C)c2c3c(-c4ccccc4)c(C4CCNCC4)[nH]c3ncc21 [Example 41, 1,3-Dimethyl-8-phenyl-7-(piperidin-4-yl)-3,6-dihydroimidazo[4,5-d]pyrrolo[2,3-b]pyridin-2(1H)-one]
- IC50 [1]: > 1000 nM
- IC50 [2]: > 1000 nM
- IC50 [3]: > 1000 nM

Structure (SMILES): Cn1c(=O)n(C)c2c3c(-c4ccccc4)c(CCO)[nH]c3ncc21 [Example 42, 7-(2-Hydroxyethyl)-1,3-dimethyl-8-phenyl-3,6-dihydroimidazo[4,5-d]pyrrolo[2,3-b]pyridin-2(1H)-one]
- IC50 [1]: > 1000 nM
- IC50 [2]: > 1000 nM
- IC50 [3]: > 1000 nM

Structure (SMILES): CC(C)C(=O)c1[nH]c2ncc3c(c2c1-c1ccccc1)n(C)c(=O)n3C [Example 43, 7-Isobutyryl-1,3-dimethyl-8-phenyl-3,6-dihydroimidazo [4,5-d]pyrrolo[2,3-b]pyridin-2(1H)-one]
- IC50 [1]: > 1000 nM
- IC50 [2]: > 1000 nM
- IC50 [3]: > 1000 nM

Structure (SMILES): CC(C)n1c(=O)n(C)c2cnc3[nH]c(-c4cnn(CS(C)(=O)=O)c4)c(-c4ccccc4)c3c21 [Example 44]
- IC50 [1]: 100 to 500 nM
- IC50 [2]: ≤ 10 nM
- IC50 [3]: ≤ 10 nM

Structure (SMILES): Cn1c(=O)n(C2CC3CCC2C3)c2c3c(-c4ccccc4)c(-c4cnn(CS(C)(=O)=O)c4)[nH]c3ncc21 (stereo not drawn) [Example 45, 1-(Bicyclo[2.2.1]heptan-2-yl)-3-methyl-7-(1-((methylsulfonyl)methyl)-1H-pyrazol-4-yl)-8-phenyl-3,6-dihydroimidazo[4,5-d]pyrrolo[2,3-b]pyridin-2(1H)-one]
- IC50 [1]: 10 to 100 nM
- IC50 [2]: ≤ 10 nM
- IC50 [3]: 10 to 100 nM

Structure (SMILES): Cn1c(=O)n(C2CCOCC2)c2c3c(-c4ccccc4)c(-c4ccc(CN5CCC(S(C)(=O)=O)CC5)cc4)[nH]c3ncc21 [Example 46, 3-Methyl-7-(4-((4-(methylsulfonyl)piperidin-1-yl)methyl)phenyl)-8-phenyl-1-(tetrahydro-2H-pyran-4-yl)-3,6-dihydroimidazo[4,5-d]pyrrolo[2,3-b] pyridin-2(1H)-one]
- IC50 [1]: 500 to 1000 nM
- IC50 [2]: ≤ 10 nM
- IC50 [3]: ≤ 10 nM

Structure (SMILES): Cn1ncc2cc(-c3c(-c4cnn(CC(C)(C)O)c4)[nH]c4ncc5c(c34)n(C3CCCC3)c(=O)n5C)ccc21 [Example 47, 1-Cyclopentyl-7-(1-(2-hydroxy-2-methylpropyl)-1H-pyrazol-4-yl)-3-methyl-8-(1-methyl-1H-indazol-5-yl)-3,6-dihydroimidazo[4,5-d]pyrrolo[2,3-b]pyridin-2(1H)-one]
- IC50 [1]: 100 to 500 nM
- IC50 [2]: ≤ 10 nM
- IC50 [3]: ≤ 10 nM
